In assay [1] the target is Bromodomain-containing protein 4 (Homo sapiens, UniProt O60885). The experiment in a line: Inhibition of 6His-tagged Thr-BRD4 (BD1) (1 to 477 residues) (unknown origin) expressed in Escherichia coli BL21(DE3) after 30 mins in presence of biotinylated triacetylated histone H4 peptide by alexa fluor 647 dyse based TR-FRET assay. For orientation: TR-FRET usually uses a lanthanide donor and a delayed reading to cut background.

In assay [2] the target is T1, ATPase family AAA domain-containing protein 2 (Homo sapiens, UniProt Q6PL18).
T1 sequence (Q6PL18 whole entry): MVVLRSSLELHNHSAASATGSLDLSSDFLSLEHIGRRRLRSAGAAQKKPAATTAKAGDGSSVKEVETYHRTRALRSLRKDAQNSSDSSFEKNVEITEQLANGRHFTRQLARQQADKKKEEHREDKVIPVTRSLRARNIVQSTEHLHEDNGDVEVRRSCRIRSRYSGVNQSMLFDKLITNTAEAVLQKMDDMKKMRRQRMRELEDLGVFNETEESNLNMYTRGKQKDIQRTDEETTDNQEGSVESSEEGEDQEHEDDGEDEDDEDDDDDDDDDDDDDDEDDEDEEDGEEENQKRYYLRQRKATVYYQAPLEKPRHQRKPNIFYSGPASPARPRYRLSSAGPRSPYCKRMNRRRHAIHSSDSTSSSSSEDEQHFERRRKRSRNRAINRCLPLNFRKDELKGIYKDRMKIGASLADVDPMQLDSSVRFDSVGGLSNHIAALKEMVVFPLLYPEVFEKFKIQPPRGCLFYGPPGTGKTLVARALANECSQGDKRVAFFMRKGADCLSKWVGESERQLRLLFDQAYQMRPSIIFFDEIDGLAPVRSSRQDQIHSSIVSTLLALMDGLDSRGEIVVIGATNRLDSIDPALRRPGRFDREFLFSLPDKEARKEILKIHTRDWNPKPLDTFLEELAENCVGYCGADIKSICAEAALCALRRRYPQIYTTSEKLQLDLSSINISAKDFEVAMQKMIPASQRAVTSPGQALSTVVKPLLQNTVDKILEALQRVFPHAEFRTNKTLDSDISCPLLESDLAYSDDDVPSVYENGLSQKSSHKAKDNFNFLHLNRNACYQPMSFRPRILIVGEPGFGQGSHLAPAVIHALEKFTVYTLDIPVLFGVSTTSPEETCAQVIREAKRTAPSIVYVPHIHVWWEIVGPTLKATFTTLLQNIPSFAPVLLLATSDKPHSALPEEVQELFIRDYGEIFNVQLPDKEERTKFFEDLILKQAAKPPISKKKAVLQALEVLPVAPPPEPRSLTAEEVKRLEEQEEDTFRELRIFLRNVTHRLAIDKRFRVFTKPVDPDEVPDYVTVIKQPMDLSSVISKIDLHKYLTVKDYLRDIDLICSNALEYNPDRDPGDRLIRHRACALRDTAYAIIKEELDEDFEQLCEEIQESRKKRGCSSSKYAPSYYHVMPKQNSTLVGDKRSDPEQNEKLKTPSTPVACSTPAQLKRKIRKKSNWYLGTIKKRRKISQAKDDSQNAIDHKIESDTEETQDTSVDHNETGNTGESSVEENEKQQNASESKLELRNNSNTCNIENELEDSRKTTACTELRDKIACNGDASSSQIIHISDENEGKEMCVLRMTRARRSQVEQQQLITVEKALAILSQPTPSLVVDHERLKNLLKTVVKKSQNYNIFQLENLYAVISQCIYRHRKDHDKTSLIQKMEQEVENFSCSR
The assay is described as follows: Inhibition of N-terminal FLAG-6His-tagged TEV-fused ATAD2 (981 to 1121 residues) (unknown origin) expressed in Escherichia coli BL21(DE3) after 30 mins in presence of biotinylated triacetylated histone H4 peptide by alexa fluor 488-dye based TR-FRET assay.

Molecules are shown by their SMILES. Some results are limits rather than exact numbers.

Consider `Cc1cncc(-c2ccc(N[C@@H]3C[C@H]4CC[C@H](N4)[C@H]3CCC3CCS(=O)(=O)CC3)c3[nH]c(=O)c(C)cc23)c1`, for which the values for the IC50 in assay [1] and in assay [2] were 5.01 µM and 0.251 µM, respectively. In the same order, the values of `Cc1cncc(-c2cnc(N[C@@H]3C[C@H]4CC[C@H](N4)[C@H]3CCC3CCOCC3)c3[nH]c(=O)c(C)cc23)c1` are 7.94 µM and 0.251 µM.

In the case of `Cc1cncc(-c2cnc(N[C@@H]3C[C@H]4CC[C@H](N4)[C@H]3CCC3CCC(F)(F)CC3)c3[nH]c(=O)c(C)cc23)c1`, the values for the IC50 in assay [1] and in assay [2] were 5.01 µM and 0.1 µM, respectively. In the same order, the values of `Cc1cncc(-c2cnc(N[C@@H]3C[C@H]4CC[C@H](N4)[C@H]3CCC3CCS(=O)(=O)CC3)c3[nH]c(=O)c(C)cc23)c1` are over 50.1 µM and 0.251 µM. `Cc1cc2ccnc(N[C@@H]3CCNC[C@H]3OCC3CCCCC3)c2[nH]c1=O`: the IC50 in assay [1] is 3.98 µM. Turning to `CO[C@H]1CNC[C@@H](OC)[C@@H]1Nc1nccc2cc(C)c(=O)[nH]c12`, the IC50 in assay [1] and in assay [2] was 25.1 µM in each case. For `Cc1cncc(-c2ccc(N[C@@H]3CCNC[C@H]3OCC3CCC(F)(F)CC3)c3[nH]c(=O)c(C)cc23)c1`, the IC50 in assay [1] was 6.31 µM; in assay [2], 0.0398 µM. Take `CO[C@@H]1CNCC[C@H]1Nc1nccc2cc(C)c(=O)[nH]c12`: in assay [1], the IC50 was 5.01 µM. Turning to `CO[C@H]1CNC[C@@H](OCC2CCS(=O)(=O)CC2)[C@@H]1Nc1ncc(-c2cncc(C)c2)c2cc(C)c(=O)[nH]c12`, the IC50 in assay [1] was 158 µM; in assay [2], 0.126 µM.

`Cc1cncc(-c2cnc(N[C@@H]3CCNC[C@H]3OCC3CCOCC3)c3[nH]c(=O)c(C)cc23)c1`: the IC50 in assay [1] was 10 µM. As to `CO[C@H]1CNC[C@@H](OCC2CCOCC2)[C@@H]1Nc1ncc(-c2cncc(C)c2)c2cc(C)c(=O)[nH]c12`, the IC50 was 31.6 µM in assay [1] and 0.2 µM in assay [2].

What is called IC50 is the concentration that inhibits the measured activity by half.

(Values after ChEMBL document CHEMBL4229567, “Aiming to Miss a Moving Target: Bromo and Extra Terminal Domain (BET) Selectivity in Constrained ATAD2 Inhibitors” (J Med Chem, 2018).)
